Patent publication US4997771A, “Method for measuring the BZ-1 receptor binding activity in a test sample or test compound” (Schering Corporation, priority 1987, dated 1991)

How the values were obtained:
[1] = target: T1, ^3 H-2-oxo-quazepam binding sites (BZ-1 receptors) in cerebellum (Rattus norvegicus, UniProt P18508+P62813); assay: ^3 H-2-oxo-quazepam competition binding, cerebellum
T1 construct: Cerebral cortex and cerebellum were dissected on ice and homogenized; tissue Charles River Breeding Laboratories (rats); host or cells: rat cerebellum synaptic membranes (washed P2 pellet)
Method: (§1) Male Spraque-Sawley rats (200 to 250 gms) from Charles River Breeding Laboratories, Mass., were used to obtain brain tissue. Animals were decapitated and their brains removed. Synaptic membranes were obtained following the procedure disclosed in Life Sc., 35, 105 (1984). Cerebral cortex and cerebellum were dissected on ice and homogenized in 20 volumes of ice cold 0.32 M sucrose using a glass homogenizer fitted with a teflon pestle. The homogenates were then centrifuged at 48,000 X g for 10 min, and the resultant P2 pellets were washed twice by re-centrifugation in 50 mM Na/K phosphate buffered saline (pH 7.4). The washed pellets were pooled and then resuspended in the same buffer to a final concentration of 50 mg of original tissue weight/ml.
(§2) Total reaction mixture volume was 1 ml which included: (a) 100 μl of either ^3 H-flunitrazepam or ^3 H-2-oxo-quazepam (tritiated at the α-carbon of the trifluoroethyl substituent located at the #1 position), yielding a final concentration of 0.5 nM (b) 100 μl of various concentrations of competing drugs dissolved or suspended in 50 mM phosphate buffered saline (pH 7.4) containing 4 mg/ml methylcellulose (c) 800 μl of tissue homogenate diluted such that a total of 5 mg of tissue was present in the final reaction mixture. In each competition experiment 25 to 30 concentrations of drug were used to obtain a complete dose response curve.
(§3) Incubations were carried out at 0° C. for 90 minutes. Samples were then filtered under vacuum through 25 mm diameter Whatman GF/B filters on a Millipore 1225 Sampling Manifold and quickly washed with 3×5 ml of ice-cold PBS buffer. Filter-bound radioactivity was quantified through liquid scintillation counting following overnight solubilization of the receptor-radioligand complex in "Scintosol" scintillation cocktail (Isolab, Inc.).
Compound assisted curve fitting was conducted on an Apple IIe computer using a program described in Br. J. Pharmacol., 80, 582P (1983) and Trends in Pharmaceutical Sci., 5, 47, (1984). […]

[2] = test system: ^3 H-flunitrazepam binding sites (benzodiazepine receptors BZ-1 and BZ-2) in rat cortex; assay: ^3 H-flunitrazepam competition binding, rat cortex; settings: for difference in binding affinity for two BZ receptors (BZ-1 and BZ-2): vs ^3 H-flunitrazepam, average; for populations of binding sites distinguished: unlabeled drug vs ^3 H-flunitrazepam
Method: as §1, §2, §3
(§4) Compound assisted curve fitting was conducted on an Apple IIe computer using a program described in Br. J. Pharmacol., 80, 582P (1983) and Trends in Pharmaceutical Sci., 5, 47, (1984). Enhancements were made to the program to allow disk storage of data and printing of the program to allow disk storage of data and printing of the graphics display. The program determines whether the results from individual competition experiments are best interpreted on the basis of a 1 or 2 site model and also provides the most probable proportions of radioligand bound to each of the sites.
(§5) Selection among models was made by comparing the sum of squares residual values for the best single and 2-site models and determining through a partial F-test evaluation whether 2-site modelling produced a statistically meaningful (P<0.05) improvement in fit as described in Anal. Biochem., 107, 220 (1980). If not, the best single site model was considered the model of choice.

[3] = cats; doses below those that caused ataxia; cited from earlier work
[4] = target: T2, ^3 H-2-oxo-quazepam binding sites (BZ-1 receptors) in rat cortex (Rattus norvegicus, UniProt P18508+P62813); assay: ^3 H-2-oxo-quazepam competition binding, rat cortex; settings: for best-fit curve model: vs ^3 H-2-oxo-quazepam 0.5 nM
T2 construct: Cerebral cortex and cerebellum were dissected on ice and homogenized; tissue Charles River Breeding Laboratories (rats); host or cells: rat cerebral cortex synaptic membranes (washed P2 pellet)
Method: as §1, §2, §3, §4, §5

[5] = doses far above tranquilizing doses; cited from earlier work
[6] = target: benzodiazepine sites (BZ-1 receptors) in rat cortex (Rattus norvegicus, UniProt P18508+P62813); assay: Saturation binding of ^3 H-2-oxo-quazepam in rat cortex; settings: for non-specific binding: 0.5 nM
Method: as §1
Saturation binding studies were conducted utilizing ^3 H-2-oxo-quazepamin rat cortex over a range of concentrations from 0.1 to 30 nM. The separation between specific and non-specific binding indicated the suitability of ^3 H-2-oxo-quazepam as a radioligand for benzodiazepine sites. Specific binding was defined as the difference between total binding and binding in the presence of 100 nM unlabeled clonazepam. At a concentration of 0.5 nM, non-specific binding for the radioligand constituted only 5 to 10 percent of total binding.

[7] = target: T3, ^3 H-flunitrazepam binding sites in rat cerebellum (BZ-1) (Rattus norvegicus, UniProt P18508+P62813); assay: ^3 H-flunitrazepam competition binding, rat cerebellum
T3 construct: Cerebral cortex and cerebellum were dissected on ice and homogenized; tissue Charles River Breeding Laboratories (rats); host or cells: rat cerebellum synaptic membranes (washed P2 pellet)
Method: as §1, with “weight/ml. […]” for “weight/ml.”
Incubations were carried out at 0° C. for 90 minutes. […] Filter-bound radioactivity was quantified through liquid scintillation counting following overnight solubilization of the receptor-radioligand complex in "Scintosol" scintillation cocktail (Isolab, Inc.). […]

[8] = test system: benzodiazepine (BZ) receptors in brain; settings: literature; cited from earlier work

Fc1ccccc1C1=NCC(=S)N(CC(F)(F)F)c2ccc(Cl)cc21 [quazepam, 7-chloro-1-(2,2,2-trifluorethyl)-5-(2-fluorophenyl)-1,3-dihydro-2H-1,4 benzodiazpeine-2-thione, reference compound]
IC50 [1]: 0.258 µM
difference in binding affinity for two BZ receptors (BZ-1 and BZ-2) ([2]; rat cortex): 54 fold
populations of binding sites distinguished ([2]; rat cortex): distinguished two subpopulations
behavioural effect [3]: only drowsiness and sleep
IC50 [4]: 0.101 µM
best-fit curve model [4]: single site curve fitting model

CN1C(=O)CN=C(c2ccccc2F)c2cc([N+](=O)[O-])ccc21 [flunitrazepam, reference compound]
receptor subtype specificity of binding ([2]; benzodiazepine receptors): binds non-specifically to benzodiazepine receptors
populations of binding sites distinguished ([2]; rat cortex): only a single uniform population of sites

O=C1CN=C(c2ccccc2)c2cc(Cl)ccc2N1CC(F)(F)F [halazepam]
ataxic effects [5]: only weak ataxic effects

O=C1CN=C(c2ccccc2F)c2cc(Cl)ccc2N1CC(F)(F)F [2-oxo-quazepam, 7-chloro-1-(2,2,2-trifluoroethyl)-5-(2-fluorophenyl)-1,3-dihydro-2H-1,4 benzodiazepine-2-one]
IC50 [1]: 0.0136 µM
relative potency vs quazepam ([1]; cerebellum, vs ^3 H-2-oxo-quazepam): 19 times
relative proportion of ^3 H-flunitrazepam binding sites, first-named subpopulation ([2]; rat cortex): 55%
relative proportion of ^3 H-flunitrazepam binding sites, second-named subpopulation ([2]; rat cortex): 45%
difference in binding affinity for two BZ receptors (BZ-1 and BZ-2) ([2]; rat cortex): 22 fold
populations of binding sites distinguished ([2]; rat cortex): distinguished two subpopulations
IC50 ([2]; vs ^3 H-flunitrazepam 0.5 nM, cortex, 0° C., 90 minutes, read-out: IC50, high affinity component): 0.0093 µM
non-specific binding [6]: < 5%
IC50 [7]: 0.0088 µM
populations of binding sites distinguished ([7]; vs ^3 H-flunitrazepam, cerebellum): did not distinguish subpopulations of binding sites
subpopulations of BZ receptors distinguished [8]: distinguish two subpopulations of benzodiazepine (BZ) receptors
IC50 [4]: 0.0168 µM
relative potency vs quazepam ([4]; cortex, vs ^3 H-2-oxo-quazepam): 6 times
BZ-1 selectivity of binding ([4]; low concentrations (0.5 nM)): binds BZ-1 receptors almost exclusively
best-fit curve model [4]: single site curve fitting model
potency in cortex compared with cerebellum ([4]; vs ^3 H-2-oxo-quazepam, cortex and cerebellum): roughly equipotent

[3H]C([3H])(N1C(=O)CN=C(c2ccccc2F)c2cc(Cl)ccc21)C(F)(F)F [^3 H-2-oxo-quazepam, 7-Chloro-1-^3 H-(2,2,2-Trifluoroethyl)-5-(2-Fluorophenyl)-1,3-Dihydro-2H-1,4 Benzodiazepine-2-One]
non-specific binding [6]: 5 to 10%
non-specific binding vs concentration ([6]; 0.1 to 30 nM, even after saturation of BZ-1 receptors): linear relationship with increasing concentration
